In patent US6495571B1, “Pyridine compounds, use and preparation thereof” (Southern Research Institute, priority 1999, dated 2002):
Like-named read-outs stand apart in the source and are kept apart here. Marks after values point to notes of the source that are not given here.

Legend:
[1] = tested on: human MX-1 mammary tumor (sc, 30-40 mg fragments); experiment: In vivo antitumor activity, s.c.-implanted MX-1 xenograft; parameters: species or system Athymic mice (Ncr-nu); settings: for antitumor activity (in words): MX-1 implanted s.c. or i.c.; for IP dosage marked (LD50): Days 12-16, sc MX-1 bearing mice
[2] = tested on: human MX-1 mammary tumor (ic, 10^6 cells); experiment: In vivo antitumor activity, i.c.-implanted MX-1 xenograft; settings: for Median % ILS (dying mice only) / Tumor-Free-Surv/Total: Days 1-5; for activity against i.c.-implanted tumor (in words): in comparison to PEN and DM-PEN; for Median % ILS (based on dying mice only) / Survivors: optimal doses (LD10 or less), schedule QD1-5, administered LP.
[3] = tested on: cancer; experiment: Anti-cancer activity (test not specified)
[4] = tested on: P388/0 murine leukemia; settings: Q1D × 1 (1)
[5] = tested on: P388/BCNU (carmustine-resistant) leukemia; experiment: Antitumor activity against IP-implanted P388/BCNU leukemia; settings: Q1D × 1 (1)
[6] = tested on: P388/L-PAM (melphalan-resistant) leukemia; settings: Q1D × 1 (1)
[7] = tested on: P388/CPA (cyclophosphamide-resistant) leukemia; assay type: in vivo, CD2F1 female mice; settings: Q1D × 1 (1)
[8] = oral (gavage) 135 mg/kg/dose, Days 12-16
[9] = oral (gavage) 135 mg/kg/dose, Days 13-17

## COCC(=O)Oc1c(Cl)c(OC)nc(C(Cl)(Cl)Cl)c1Cl [DM-MA-PEN]
[1]; [8]
  T-C: >41.0 days
  Tumor-Free-Surv/Total: 5/5
[2]; IP 90 mg/kg/dose
  Median % ILS (dying mice only): +125%
  Tumor-Free-Surv/Total: 1/5
[2]
  activity against i.c.-implanted tumor (in words): significant activity
  Median % ILS (based on dying mice only): 126^a %
  Survivors: 1/5
[2]; oral (gavage) 90 mg/kg/dose
  Median % ILS (dying mice only): +110%
  Tumor-Free-Surv/Total: 1/5

## COc1nc(C(Cl)(Cl)Cl)c(Cl)c(OC(=O)CCl)c1Cl [DM-CA-PEN]
[1]; IP 60 mg/kg/dose, Days 12-16
  T-C: >41.0 days
  Tumor-Free-Surv/Total: 3/5
[1]; [8]
  T-C: >41.0 days
  Tumor-Free-Surv/Total: 5/5
[2]; oral (gavage) 135 mg/kg/dose
  Median % ILS (dying mice only): +84%
  Tumor-Free-Surv/Total: 2/5

## COc1nc(C(Cl)(Cl)Cl)c(Cl)c(OC(=O)c2ccc([N+](=O)[O-])cc2)c1Cl [DM-NB-PEN]
[1]; IP 135 mg/kg/dose, Days 12-16
  T-C: >38.6 days
  Tumor-Free-Surv/Total: 5/5

## COc1nc(C(Cl)(Cl)Cl)c(Cl)c(OC(=O)c2ccccc2)c1Cl [DM-B-PEN]
[1]; IP 135 mg/kg/dose, Days 11-15
  T-C: >42.7 days
  Tumor-Free-Surv/Total: 5/5
[1]; i.p. administration
  antitumor activity (in words): high activity
[1]; oral drug treatment
  antitumor activity (in words): low antitumor activity
[1]; inferred from MX-1 results (s.c. or i.c.), oral treatment
  oral absorption (in words): oral absorption was poor
[1]; [9]
  T-C: -1.4 days
  Tumor-Free-Surv/Total: 0/5
[2]; IP 335 mg/kg/dose
  Median % ILS (dying mice only): +84%
  Tumor-Free-Surv/Total: 0/5
[2]; oral (gavage) 135 mg/kg/dose
  Median % ILS (dying mice only): +12%
  Tumor-Free-Surv/Total: 0/5

## COc1nc(C(Cl)(Cl)Cl)c(Cl)c(OC(=O)COC(C)=O)c1Cl [DM-AA-PEN]
[2]; IP 135 mg/kg/dose
  Median % ILS (dying mice only): +67%
  Tumor-Free-Surv/Total: 0/5
[2]; oral (gavage) 135 mg/kg/dose
  Median % ILS (dying mice only): +115%
  Tumor-Free-Surv/Total: 2/5

## CCOc1c(Cl)c(OC)nc(C(Cl)(Cl)Cl)c1Cl [3,5-dichloro-4-ethoxy-6-methoxy-2-(trichloromethyl)pyridine]
[3]
  anti-cancer activity (in words): active anti-cancer activity

## COc1nc(C(Cl)(Cl)Cl)c(Cl)c(OC(=O)CI)c1Cl [DM-IA-PEN]
[1]; IP 60 mg/kg/dose, Days 12-16
  T-C: 20.3 days
  Tumor-Free-Surv/Total: 1/5
[1]
  IP dosage marked (LD50): 60 (LD50) mg/kg/dose

## COc1nc(C(Cl)(Cl)Cl)c(Cl)c(OC(=O)C(Cl)Cl)c1Cl [DM-DCA-PEN]
[1]; IP 135 mg/kg/dose, Days 12-16
  T-C: >38.6 days
  Tumor-Free-Surv/Total: 2/5

## COc1nc(C(Cl)(Cl)Cl)c(Cl)c(OC(=O)CBr)c1Cl [DM-BA-PEN]
[1]; IP 135 mg/kg/dose, Days 12-16
  T-C: >41.0 days
  Tumor-Free-Surv/Total: 2/5

## CCCCCCCC(=O)Oc1c(Cl)c(OC)nc(C(Cl)(Cl)Cl)c1Cl [DM-O-PEN]
[2]; IP 90 mg/kg/dose
  Median % ILS (dying mice only): +121%
  Tumor-Free-Surv/Total: 0/5
[2]
  activity against i.c.-implanted tumor (in words): significant activity
  Median % ILS (based on dying mice only): 121^b %
  Survivors: 0/5

## COc1nc(C(Cl)(Cl)Cl)c(Cl)c(OC(=O)c2ccncc2)c1Cl [DM-IN-PEN]
[1]; IP 90 mg/kg/dose, Days 12-16
  T-C: >38.6 days
  Tumor-Free-Surv/Total: 3/5
[1]
  IP dosage marked (LD50): 90 (LD50) mg/kg/dose

## CCOc1nc(C(Cl)(Cl)Cl)c(Cl)c(OCC)c1Cl [3,5-dichloro-4,6-diethoxy-2-(trichloromethyl)pyridine]
[3]
  anti-cancer activity (in words): active anti-cancer activity

## C=CC(=O)Oc1c(Cl)c(OC)nc(C(Cl)(Cl)Cl)c1Cl [DM-AC-PEN]
[1]; IP 60 mg/kg/dose, Days 12-16
  T-C: 30.0 days
  Tumor-Free-Surv/Total: 1/5
[2]; IP 60 mg/kg/dose
  Median % ILS (dying mice only): +55%
  Tumor-Free-Surv/Total: 0/5

## COc1nc(C(Cl)(Cl)Cl)c(Cl)c(OC(=O)C(C)(C)C)c1Cl [DM-P-PEN]
[1]; IP 135 mg/kg/dose, Days 11-15
  T-C: >42.7 days
  Tumor-Free-Surv/Total: 5/5
[1]; [9]
  T-C: 0.9 days
  Tumor-Free-Surv/Total: 0/5
[2]; IP 135 mg/kg/dose
  Median % ILS (dying mice only): +64%
  Tumor-Free-Surv/Total: 0/5
[2]; oral (gavage) 135 mg/kg/dose
  Median % ILS (dying mice only): +20%
  Tumor-Free-Surv/Total: 0/5

## O=NN(CCCl)C(=O)NCCCl [BCNU (carmustine), carmustine]
[4]; IP 20.0 mg/kg/dose
  50-DAY SURV./TOTAL: 3/6
[4]; IP 30.0 mg/kg/dose
  50-DAY SURV./TOTAL: 6/6
[5]; IP 20.0 mg/kg/dose
  50-DAY SURV./TOTAL: 0/6
  % ILS: 0%
[5]; IP 30.0 mg/kg/dose
  50-DAY SURV./TOTAL: 0/6
  % ILS: −6%
  MEDIAN DAY OF DEATH: 8.5

## COc1nc(C(Cl)(Cl)Cl)c(Cl)c(OC(=O)c2c(Cl)cc(Cl)cc2Cl)c1Cl [DM-TCB-PEN]
[2]; IP 135 mg/kg/dose
  Median % ILS (dying mice only): +92%
  Tumor-Free-Surv/Total: 1/5

## N[C@@H](Cc1ccc(N(CCCl)CCCl)cc1)C(=O)O [L-PAM (melphalan), melphalan]
[4]; IP 15.0 mg/kg/dose
  50-DAY SURV./TOTAL: 6/6
[4]; IP 20.0 mg/kg/dose
  50-DAY SURV./TOTAL: 5/6
  % ILS: +208%
  APPROX. NET LOG10 CHANGE IN TUMOR BURDEN AT END OF Rx: ca −6.8
  MEDIAN DAY OF DEATH: 34.0
[6]; IP 15.0 mg/kg/dose
  50-DAY SURV./TOTAL: 0/6
  % ILS: +14%
  APPROX. NET LOG10 CHANGE IN TUMOR BURDEN AT END OF Rx: −1.8
  MEDIAN DAY OF DEATH: 18.0
[6]; IP 20.0 mg/kg/dose
  50-DAY SURV./TOTAL: 0/6
  % ILS: +14%
  APPROX. NET LOG10 CHANGE IN TUMOR BURDEN AT END OF Rx: −1.8
  MEDIAN DAY OF DEATH: 18.0

## COc1nc(C(Cl)(Cl)Cl)c(Cl)c(OC(=O)c2cccs2)c1Cl [DM-TC-PEN]
[1]; IP 90 mg/kg/dose, Days 12-16
  T-C: >41.2 days
  Tumor-Free-Surv/Total: 4/5
[2]; IP 135 mg/kg/dose
  Median % ILS (dying mice only): +100%
  Tumor-Free-Surv/Total: 0/5
[2]
  activity against i.c.-implanted tumor (in words): significant activity
  Median % ILS (based on dying mice only): 100^d %
  Survivors: 0/5

## COc1nc(C(Cl)(Cl)Cl)c(Cl)c(OC(=O)c2ccco2)c1Cl [DM-F-PEN]
[1]; IP 90 mg/kg/dose, Days 12-16
  T-C: >41.2 days
  Tumor-Free-Surv/Total: 5/5
[2]; IP 135 mg/kg/dose
  Median % ILS (dying mice only): +108%
  Tumor-Free-Surv/Total: 2/5
[2]
  activity against i.c.-implanted tumor (in words): significant activity
  Median % ILS (based on dying mice only): 108^c %
  Survivors: 2/5

## COC(=O)CCC(=O)Oc1c(Cl)c(OC)nc(C(Cl)(Cl)Cl)c1Cl [DM-CMP-PEN]
[1]; IP 135 mg/kg/dose, Days 11-15
  T-C: >42.7 days
  Tumor-Free-Surv/Total: 3/5
[1]; [9]
  T-C: >38.5 days
  Tumor-Free-Surv/Total: 2/5
[2]; IP 90 mg/kg/dose
  Median % ILS (dying mice only): +87%
  Tumor-Free-Surv/Total: 1/5
[2]; oral (gavage) 90 mg/kg/dose
  Median % ILS (dying mice only): +76%
  Tumor-Free-Surv/Total: 1/5

## COc1nc(C(Cl)(Cl)Cl)c(Cl)c(OC(=O)c2ccc(CCl)cc2)c1Cl [DM-CMB-PEN]
[2]; IP 90 mg/kg/dose
  Median % ILS (dying mice only): +73%
  Tumor-Free-Surv/Total: 0/5

## O=P1(N(CCCl)CCCl)NCCCO1 (centres unmarked) [CPA (cycloposphamide), cyclophosphamide]
[7]; IP 175.0 mg/kg/dose
  50-DAY SURV./TOTAL: 0/6
  % ILS: +9%
  APPROX. NET LOG10 CHANGE IN TUMOR BURDEN AT END OF Rx: −0.6
[7]; IP 265.0 mg/kg/dose
  50-DAY SURV./TOTAL: 0/6
  % ILS: +27%
  APPROX. NET LOG10 CHANGE IN TUMOR BURDEN AT END OF Rx: −1.7
[4]; IP 175.0 mg/kg/dose
  50-DAY SURV./TOTAL: 1/6
  % ILS: +172%
  APPROX. NET LOG10 CHANGE IN TUMOR BURDEN AT END OF Rx: ca −6.8
[4]; IP 265.0 mg/kg/dose
  50-DAY SURV./TOTAL: 6/6

## COc1nc(C(Cl)(Cl)Cl)c(Cl)c(OC(=O)c2ccc([N+](=O)[O-])o2)c1Cl [DM-NF-PEN]
[1]; IP 90 mg/kg/dose, Days 12-16
  T-C: >41.2 days
  Tumor-Free-Surv/Total: 4/5
[2]; IP 135 mg/kg/dose
  Median % ILS (dying mice only): +59%
  Tumor-Free-Surv/Total: 0/5

## COc1nc(C(Cl)(Cl)Cl)c(Cl)c(OC(=O)Cc2cccs2)c1Cl [DM-TA-PEN]
[1]; IP 90 mg/kg/dose, Days 12-16
  T-C: >41.2 days
  Tumor-Free-Surv/Total: 3/5
[2]; IP 90 mg/kg/dose
  Median % ILS (dying mice only): +75%
  Tumor-Free-Surv/Total: 0/5
